Substitutions are numbered along the chain they refer to. Like-named read-outs stand apart in the source and are kept apart here.
Tests used:
hM1 = biological target: T1, hM1 (Homo sapiens, UniProt P11229); assay: Calcium mobilization assay in CHO-K1 cells stably expressing human M1 (high throughput, FDSS 6000); type: cell-based; conditions: for Emax: HM1, read-out: Efficacy (% Max ACh)
T1 construct: host or cells: CHO-K1
T1 sequence (P11229 1-460): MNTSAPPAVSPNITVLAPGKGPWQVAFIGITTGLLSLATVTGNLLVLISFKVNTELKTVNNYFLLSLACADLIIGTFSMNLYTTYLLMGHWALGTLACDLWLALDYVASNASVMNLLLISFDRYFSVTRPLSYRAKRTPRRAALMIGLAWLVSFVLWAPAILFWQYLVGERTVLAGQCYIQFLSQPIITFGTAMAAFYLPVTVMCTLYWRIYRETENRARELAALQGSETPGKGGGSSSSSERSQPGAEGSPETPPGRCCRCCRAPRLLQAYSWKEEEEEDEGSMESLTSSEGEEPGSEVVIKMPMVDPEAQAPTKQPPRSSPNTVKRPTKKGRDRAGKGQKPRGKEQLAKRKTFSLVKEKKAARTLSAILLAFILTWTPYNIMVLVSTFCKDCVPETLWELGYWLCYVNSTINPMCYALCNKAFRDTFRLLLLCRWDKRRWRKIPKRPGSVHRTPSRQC
Description: (§1) Chinese hamster ovary (CHO-K1) cells stably expressing rat (r) M1 were purchased from the American Type Culture Collection and cultured according to their indicated protocol. CHO cells stably expressing human (h)M2, hM3, and hM5 were described previously (Levey et al., 1991); hM1 and hM4 cDNAs were purchased from Missouri S&T cDNA Resource; rM4 cDNA was provided by T. I. Bonner (National Institutes of Health, Bethesda, Md.). hM1, hM4, and rM4 cDNAs were used to stably transfect CHO-K1 cells purchased from the American Type Culture Collection using Lipofectamine2000. To make stable hM2, hM4 and rM4 cell lines for use in calcium mobilization assays, these cells also were stably transfected with a chimeric G-protein (Gqi5) (provided by B. R. Conklin, University of California, San Francisco) using Lipofectamine 2000. rM1, hM3, and hM5 cells were grown in Ham's F-12 medium containing 10% heat-inactivated fetal bovine serum (FBS), 20 mM HEPES, and 50 μg/mL G418 sulfate. hM2-Gqi5 and hM4-Gqi5 cells were grown in the same medium also containing 500 μg/mL Hygromycin B. Stable rM4-Gqi5 cells were grown in DMEM containing 10% heat-inactivated FBS, 20 mM HEPES, 400 μg/mL G418 sulfate, and 500 μg/mL Hygromycin B. The rat M1 Y381A orthosteric mutant receptor cDNA was generated using the Quik-Change site-directed mutagenesis kit (Stratagene) and verified by sequencing. CHO-K1 cells were stably transfected with this cDNA using Lipofectamine2000 and screened for expression based on calcium mobilization in response to the allosteric M1 agonist N-desmethylclozapine.
For high throughput measurement of agonist-evoked increases in intracellular calcium, CHO-K1 cells stably expressing muscarinic receptors were plated in growth medium lacking G418 and hygromycin at 15,000 cells/20 μL/well (hM1, hM2-Gqi5, hM3, hM4-Gqi5, and hM5) in Greiner 384-well black-walled, tissue culture (TC)-treated, clear-bottom plates (VWR). Cells were incubated overnight at 37° C. and 5% CO2. The next day, cells were washed using an ELX 405 (BioTek) with three washes (50 μL) of assay buffer then aspirated to 15 μL. Next, 5 μL of 8 μM Fluo-4/acetoxymethyl ester (Invitrogen, Carlsbad, Calif.) prepared as a 2.3 mM stock in DMSO and mixed in a 1:1 ratio with 10% (w/v) Pluronic F-127 and diluted in assay buffer was added to the wells and the cell plates were incubated for 45 min at 37° C. and 5% CO2. Dye was removed by washing with the ELX 405 (three 50 μL washes of assay buffer) then aspirated to 20 μL. Agonist and compound master plates were formatted in an 11 point CRC format (1:3 dilutions) in 100% DMSO with a starting concentration of 10 mM using the BRAVO liquid handler (Agilent). Test compound CRCs were then transferred to daughter plates ([…]) using the Echo acoustic plate reformatter (Labcyte, Sunnyvale, Calif.) and then diluted into assay buffer (40 μL) to a 2× stock using a Thermo Fisher Combi (Thermo Fisher Scientific, Waltham, Mass.). Calcium flux was measured using the Functional Drug Screening System (FDSS) 6000 (Hamamatsu Corporation, Tokyo, Japan) as an increase in the fluorescent static ratio. 20 μL of Agonist Compounds were applied to cells using the automated system of the FDSS 6000 at 4 s into the 300 s protocol and the data were collected at 1 Hz. Concentration-response curves were generated using a four-parameter logistical equation in XLfit curve fitting software (IDBS, Bridgewater, N.J.) for Excel (Microsoft, Redmond, Wash.) or Prism (GraphPad Software, Inc., San Diego, Calif.).

rM1 = biological target: T2, rM1 (Rattus norvegicus, UniProt P08482); assay: Calcium mobilization assay in CHO-K1 cells stably expressing rat M1 (low throughput, Flexstation II); type: cell-based; conditions: for Emax: RM1, read-out: Efficacy (% Max ACh)
T2 construct: host or cells: CHO-K1
T2 sequence (P08482 1-460): T1 sequence (P11229 1-460) with A5V, T254S, P309S, R320K, A337G, I413V
Description: as §1
For low throughput measurement of agonist-evoked increases in intracellular calcium, CHO-K1 cells stably expressing muscarinic receptors were plated in 100 μL of growth medium at 5×10^4 (rM1, hM3, and hM5) or 6×10^4 cells per well (rM1 Y381A, hM2, and rM4) in Costar 96-well black-walled, tissue culture (TC)-treated, clear-bottom plates (Fisher). Cells were incubated overnight at 37° C. and 5% CO2. The next day, medium was removed from the cells, and they were incubated with 50 μL of 2 μM Fluo-4/acetoxymethyl ester (Invitrogen, Carlsbad, Calif.) prepared as a 2.3 mM stock in DMSO and mixed in a 1:1 ratio with 10% (w/v) Pluronic F-127 and diluted in assay buffer [HBSS (Invitrogen) supplemented with 20 mM HEPES and 2.5 mM probenecid, pH 7.4] for 1 h at 37° C. and 5% CO2. Dye was removed and replaced with 50 μL of assay buffer. For calcium fluorescence measurements, CRCs of compounds (50 μl, 2×) were added 19 s after the beginning of data collection via a Flexstation II (Molecular Devices, Sunnyvale, Calif.). Fluorescence imaging continued for a total of 130 s acquisition time using an excitation wavelength of 488 nm, an emission wavelength of 525 nm, and a cutoff wavelength of 515 nm. All of the peaks of the calcium response were normalized to the response to a maximally effective concentration of ACh (ECmax). These normalized peak calcium response values were fit using GraphPad Prism version 4.0 to a four-parameter logistic equation to determine EC50 values.

[1] = agonist-evoked calcium mobilization, CHO-K1 hM1 cells, read-out: hM1 Potency (EC50)
[2] = agonist-evoked calcium mobilization, CHO-K1 rM1 cells, read-out: rM1 Potency (EC50)

Compound | Emax (hM1) [%] | EC50 (hM1; [1]) [nM] | Emax (rM1) [%] | EC50 (rM1; [2]) [nM] | EC50 (hM1) [nM] | EC50 (rM1) [nM]
CCOC(=O)N1C2CCC1CC(N1CCC[C@@H](NC(=O)OC(C)(C)C)C1)C2 (stereo partly drawn) [Example 1, ethyl 3-((R)-3-((tert-butoxycarbonyl)amino)piperidin-1-yl)-8-azabicyclo[3.2.1]octane-8-carboxylate] | 29 | 2000 | 74 | 267 | – | –
CCOC(=O)N1C2CCC1CC(N1CCC[C@@H](NC(=O)c3ccccc3C)C1)C2 (stereo partly drawn) [Example 2, ethyl 3-((R)-3-(2-methylbenzamido)piperidin-1-yl)-8-azabicyclo[3.2.1]octane-8-carboxylate] | 88 | – | 94 | – | 53 | 5
CCOC(=O)N1C2CCC1CC(N1CCC[C@@H](NC(=O)c3ccccc3)C1)C2 (stereo partly drawn) [Example 3, ethyl 3-((R)-3-benzamidopiperidin-1-yl)-8-azabicyclo[3.2.1]octane-8-carboxylate] | 79 | 1600 | 93 | 112 | – | –
CCOC(=O)N1C2CCC1CC(N1CCC[C@@H](NC(=O)c3cccc(OC)c3)C1)C2 (stereo partly drawn) [Example 4, ethyl 3-((R)-3-(3-methoxybenzamido)piperidin-1-yl)-8-azabicyclo[3.2.1]octane-8-carboxylate] | 76 | – | 94 | – | 250 | 52
CCOC(=O)N1C2CCC1CC(N1CCC[C@@H](NC(=O)c3ccc(F)cc3F)C1)C2 (stereo partly drawn) [Example 5, ethyl 3-((R)-3-(2,4-difluorobenzamido)piperidin-1-yl)-8-azabicyclo[3.2.1]octane-8-carboxylate] | – | – | 89 | – | – | 69
CCOC(=O)N1C2CCC1CC(N1CCC[C@@H](NC(=O)c3cccc(C)c3)C1)C2 (stereo partly drawn) [Example 6, ethyl 3-((R)-3-(3-methylbenzamido)piperidin-1-yl)-8-azabicyclo[3.2.1]octane-8-carboxylate] | – | – | 94 | – | – | 41
CCOC(=O)N1C2CCC1CC(N1CCC[C@@H](NC(=O)c3ccc(F)c(C)c3)C1)C2 (stereo partly drawn) [Example 8, ethyl 3-((R)-3-(4-fluoro-3-methylbenzamido)piperidin-1-yl)-8-azabicyclo[3.2.1]octane-8-carboxylate] | – | – | 93 | – | – | 48
CCOC(=O)N1C2CCC1CC(N1CCC[C@@H](NC(=O)c3ccc(F)cc3)C1)C2 (stereo partly drawn) [Example 9, ethyl 3-((R)-3-(4-fluorobenzamido)piperidin-1-yl)-8-azabicyclo[3.2.1]octane-8-carboxylate] | – | – | 95 | – | – | 38
CCOC(=O)N1C2CCC1CC(N1CCC[C@@H](NC(=O)c3cc(F)cc(F)c3)C1)C2 (stereo partly drawn) [Example 10, ethyl 3-((R)-3-(3,5-difluorobenzamido)piperidin-1-yl)-8-azabicyclo[3.2.1]octane-8-carboxylate] | – | – | 90 | – | – | 96
CCOC(=O)N1C2CCC1CC(N1CCC[C@@H](NC(=O)c3cc(Cl)ccc3F)C1)C2 (stereo partly drawn) [Example 11, ethyl 3-((R)-3-(5-chloro-2-fluorobenzamido)piperidin-1-yl)-8-azabicyclo[3.2.1]octane-8-carboxylate] | – | – | 65 | 590 | – | –
CCOC(=O)N1C2CCC1CC(N1CCC[C@@H](NC(=O)c3ccc(F)c(F)c3)C1)C2 (stereo partly drawn) [Example 12, ethyl 3-((R)-3-(3,4-difluorobenzamido)piperidin-1-yl)-8-azabicyclo[3.2.1]octane-8-carboxylate] | 68 | 750 | – | – | – | –
CCOC(=O)N1C2CCC1CC(N1CCC[C@@H](NC(=O)c3ccccc3F)C1)C2 (stereo partly drawn) [Example 13, ethyl 3-((R)-3-(2-fluorobenzamido)piperidin-1-yl)-8-azabicyclo[3.2.1]octane-8-carboxylate] | 38 | 4200 | – | – | – | –
CCOC(=O)N1C2CCC1CC(N1CCC[C@@H](NC(=O)c3ccc(F)cc3Cl)C1)C2 (stereo partly drawn) [Example 14, ethyl 3-((R)-3-(2-chloro-4-fluorobenzamido)piperidin-1-yl)-8-azabicyclo[3.2.1]octane-8-carboxylate] | 68 | 620 | – | – | – | –
CCOC(=O)N1C2CCC1CC(N1CCC[C@@H](NC(=O)c3c(F)cccc3F)C1)C2 (stereo partly drawn) [Example 15, ethyl 3-((R)-3-(2,6-difluorobenzamido)piperidin-1-yl)-8-azabicyclo[3.2.1]octane-8-carboxylate] | 66 | 330 | – | – | – | –
CCOC(=O)N1C2CCC1CC(N1CC[C@@H](NC(=O)c3ccccc3C)C1)C2 (stereo partly drawn) [Example 16, ethyl 3-((R)-3-(2-methylbenzamido)pyrrolidin-1-yl)-8-azabicyclo[3.2.1]octane-8-carboxylate] | 57 | 940 | – | – | – | –
CCOC(=O)N1C2CCC1CC(N1CC[C@@H](NC(=O)c3ccccc3)C1)C2 (stereo partly drawn) [Example 17, ethyl 3-((R)-3-benzamidopyrrolidin-1-yl)-8-azabicyclo[3.2.1]octane-8-carboxylate] | 54 | 160 | – | – | – | –

Reference: patent US20130197027A1, “HETEROCYCLYL-AZABICYCLO[3.2.1]OCTANE ANALOGS AS SELECTIVE M1 AGONISTS AND METHODS OF MAKING AND USING SAME” (priority 2010, published 2013)
